PubChem BioAssay (NCI)
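Briefly, cells in 96-well plates were exposed to five compound concentrations for 48 h, and endpoints were estimated by linear interpolation. GI50 marks 50% less growth. TGI is the concentration that stops growth completely.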

Assays:
Test in all cases: DTP human tumour cell line panel, 48 h
[1] = test system: CCRF-CEM leukemia
[2] = test system: COLO 205 colon
[3] = test system: HCT-116 colon
[4] = test system: HS 578T breast
[5] = test system: MDA-MB-435
[6] = test system: SF-295 CNS
[7] = test system: SK-MEL-2 melanoma
[8] = test system: SK-MEL-5 melanoma
[9] = test system: SNB-19 CNS
[10] = test system: UACC-257 melanoma

| Structure (SMILES) | GI50 [1] [µM] | TGI [1] [µM] | GI50 [2] [µM] | TGI [2] [µM] | GI50 [3] [µM] | TGI [3] [µM] | GI50 [4] [µM] | TGI [4] [µM] | GI50 [5] [µM] | TGI [5] [µM] | GI50 [6] [µM] | TGI [6] [µM] | GI50 [7] [µM] | TGI [7] [µM] | GI50 [8] [µM] | TGI [8] [µM] | GI50 [9] [µM] | TGI [9] [µM] | GI50 [10] [µM] | TGI [10] [µM] |
| --- | --- | --- | --- | --- | --- | --- | --- | --- | --- | --- | --- | --- | --- | --- | --- | --- | --- | --- | --- | --- |
| COc1cc2c(cc1-c1c(C)noc1C)cc(C)c(=O)n2Cc1ccccn1 | 1.57 | > 100 | 0.566 | 22.2 | 1.91 | > 100 | 0.318 | 13.3 | 1.25 | 4.33 | 2.3 | > 100 | 2.46 | > 100 | 1.99 | 10.7 | 1.86 | > 100 | 2.18 | > 100 |
| COc1ccc(C(OCC2OC(n3cc(C)c(=O)[nH]c3=O)CC2n2cc(Cn3cc(F)c(=O)[nH]c3=O)nn2)(c2ccccc2)c2ccccc2)cc1 (stereo unspecified) | – | 9.85 | – | 27 | – | 13.2 | – | > 100 | – | 3.94 | – | 19.4 | – | 24.8 | – | 30.1 | – | 22.8 | – | 28 |
| CC(O)C1CC1(CO)CNc1cc(Cl)nc(N)n1 (stereo unspecified) | – | > 100 | – | > 100 | – | > 100 | – | > 100 | – | > 100 | – | > 100 | – | > 100 | – | > 100 | – | > 100 | – | > 100 |
| CCOC(=O)NC(=S)NN(C)C1=NCC(C)(C)S1 | – | > 100 | – | > 100 | – | > 100 | – | > 100 | – | > 100 | – | > 100 | – | > 100 | – | > 100 | – | > 100 | – | > 100 |
| C1=CC2=CC=CC3c4nc5ccc6ccccc6c5nc4C(=C1)C23 (stereo unspecified) | – | > 100 | – | > 100 | – | > 100 | – | > 100 | – | > 100 | – | > 100 | – | > 100 | – | > 100 | – | > 100 | – | > 100 |
| O=C(N=Nc1cc(Cl)ccc1Cl)NNc1cc(Cl)ccc1Cl | – | 49.8 | – | 41.1 | – | 33.6 | – | 52.6 | – | 30 | – | > 100 | – | 51.5 | – | 25.3 | – | – | – | – |
| O=[N+]([O-])/C(C(Cl)=C(Cl)Cl)=C(\Nc1cccc2cccnc12)SCc1ccccc1 | – | 97.4 | – | 33.5 | – | 36.1 | – | 19.3 | – | 37.7 | – | 37.4 | – | 41 | – | – | – | 42 | – | 49.2 |
| C/C=C/C=C/c1nc(C#N)c(N)o1 | – | > 100 | – | > 100 | – | > 100 | – | > 100 | – | > 100 | – | > 100 | – | > 100 | – | – | – | > 100 | – | > 100 |
